Several values for one entry are separate records, joined by “and”; a condition that tells them apart may be missing. Equal values may be shown once. Entries after “also recorded” stand apart in the source; their conditions may differ.
What was measured:
[1] = molecular target: BdGUS (Bifidobacterium dentium GUS) (Bifidobacterium dentium, UniProt D2Q7B1); experiment: biochemical; design: GUS activity (hydrolysis rate of MUG) / 1/v: unit not given here
[2] = molecular target: LgGUS (Lactobacillus gasseri GUS) (Lactobacillus gasseri, UniProt Q9AHJ8); experiment: GUS inhibition assay, hydrolysis of 4-methylumbelliferyl-β-glucuronide, LgGUS; type: biochemical; design: GUS activity (hydrolysis rate of MUG) / 1/v: unit not given here
[3] = molecular target: EcGUS (Escherichia coli GUS) (Escherichia coli, UniProt P05804); experiment: biochemical
[4] = molecular target: T1, GUS activity in live E. coli cells (Escherichia coli, UniProt P05804); experiment: GUS activity in live E. coli cells; type: cell-based; details: E. coli cells (OD600 = 1.89) treated for 30 min, then GUS activity measured
T1 construct: endogenous in cells
Experimental: To examine if inhibitors 2–4 could inhibit GUS activity in vivo, E. coli cells (OD600 = 1.89) were treated with each of 2–4 for 30 min, after which GUS activity was measured. […]; 3, 18.6 nM; and 4, 3.69 nM (Supplementary Fig. 9a). […]. […] Additionally, to evaluate cell viability, E. coli cultures were treated with ampicillin (positive control), DMSO, or inhibitors 2–4 (100 μM) for 6 h.
Supplementary Figure 9 Inhibitors 2–4 sho w in hi biti on ag ai n st G US acti vity in l i ve E. co li cell s. (a) GUS activity was measured in live E. coli. Af t e r E. coli were incubated with DMSO or an inhibitor ( 2–4), GUS activity was measured using 4-methylumbelliferyl-β-glucuronide as the substrate. The release of fluorescent 4-methylumbelliferone was detected at 445 nm (excitation, 345 nm). Compared with the negative c ont rol (DMSO ), […]
[…]. (b) Colony formation assay. None of the inhibitors affected bacterial growth. As a negative control, E. coli cells were incubated with ampicillin (100 μg/mL). Results are expressed as the mean of triplicate samples ± SEM.
(1 picture or pasted object on this page, not shown here)

EcGUS = EcGUS (Escherichia coli, UniProt P05804); experiment: Isothermal titration calorimetry, EcGUS; type: binding; details: EcGUS
[5] = [Inhibitor 3] = 0.25 μM, [MUG] 0.375 mM
[6] = [Inhibitor 3] = 0.25 μM, [MUG] 0.75 mM
[7] = [Inhibitor 3] = 0.25 μM, [MUG] 1.5 mM
[8] = [Inhibitor 3] = 0.25 μM, [MUG] 3 mM
[9] = [Inhibitor 3] = 0.5 μM, [MUG] 0.375 mM
[10] = [Inhibitor 3] = 0.5 μM, [MUG] 0.75 mM
[11] = [Inhibitor 3] = 0.5 μM, [MUG] 1.5 mM
[12] = [Inhibitor 3] = 0.5 μM, [MUG] 3 mM
[13] = [Inhibitor 3] = 1 μM, [MUG] 0.375 mM
[14] = [Inhibitor 3] = 1 μM, [MUG] 0.75 mM
[15] = [Inhibitor 3] = 1 μM, [MUG] 1.5 mM
[16] = [Inhibitor 3] = 1 μM, [MUG] 3 mM
[17] = [Inhibitor 3] = 2 μM, [MUG] 0.375 mM
[18] = [Inhibitor 3] = 2 μM, [MUG] 0.75 mM
[19] = [Inhibitor 3] = 2 μM, [MUG] 1.5 mM
[20] = [Inhibitor 3] = 2 μM, [MUG] 3 mM
[21] = [Inhibitor 3] = 0.5 μM, [MUG] 0.0375 mM
[22] = [Inhibitor 3] = 0.5 μM, [MUG] 0.075 mM
[23] = [Inhibitor 3] = 0.5 μM, [MUG] 0.15 mM
[24] = [Inhibitor 3] = 0.5 μM, [MUG] 0.3 mM
[25] = [Inhibitor 3] = 1 μM, [MUG] 0.0375 mM
[26] = [Inhibitor 3] = 1 μM, [MUG] 0.075 mM
[27] = [Inhibitor 3] = 1 μM, [MUG] 0.15 mM
[28] = [Inhibitor 3] = 1 μM, [MUG] 0.3 mM
[29] = [Inhibitor 3] = 2 μM, [MUG] 0.0375 mM
[30] = [Inhibitor 3] = 2 μM, [MUG] 0.075 mM
[31] = [Inhibitor 3] = 2 μM, [MUG] 0.15 mM
[32] = [Inhibitor 3] = 2 μM, [MUG] 0.3 mM
[33] = [Inhibitor 3] = 4 μM, [MUG] 0.0375 mM
[34] = [Inhibitor 3] = 4 μM, [MUG] 0.075 mM
[35] = [Inhibitor 3] = 4 μM, [MUG] 0.15 mM
[36] = [Inhibitor 3] = 4 μM, [MUG] 0.3 mM
[37] = phosphate buffer (250 mM NaCl, 20 mM KH2PO4, 100 mM Na2HPO4, pH 8.0), 298 K

Chain of BdGUS (Bifidobacterium dentium GUS) (D2Q7B1 1-668): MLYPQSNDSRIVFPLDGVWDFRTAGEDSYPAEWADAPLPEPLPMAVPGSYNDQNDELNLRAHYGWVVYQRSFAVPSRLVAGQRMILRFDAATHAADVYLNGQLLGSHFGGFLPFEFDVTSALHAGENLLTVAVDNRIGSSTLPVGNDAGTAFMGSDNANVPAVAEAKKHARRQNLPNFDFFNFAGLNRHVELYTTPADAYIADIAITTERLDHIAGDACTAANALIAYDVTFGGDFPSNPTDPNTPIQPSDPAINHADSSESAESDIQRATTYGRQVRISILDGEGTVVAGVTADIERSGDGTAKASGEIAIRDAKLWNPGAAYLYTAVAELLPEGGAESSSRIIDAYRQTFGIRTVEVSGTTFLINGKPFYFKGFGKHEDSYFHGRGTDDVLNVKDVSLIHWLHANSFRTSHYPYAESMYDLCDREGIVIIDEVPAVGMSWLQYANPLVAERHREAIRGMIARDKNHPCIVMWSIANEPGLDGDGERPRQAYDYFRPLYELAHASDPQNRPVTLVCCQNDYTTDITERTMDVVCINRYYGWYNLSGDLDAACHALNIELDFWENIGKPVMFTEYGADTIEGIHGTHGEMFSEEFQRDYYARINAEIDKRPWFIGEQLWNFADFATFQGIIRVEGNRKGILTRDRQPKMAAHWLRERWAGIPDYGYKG
Chain of EcGUS (P05804 whole entry): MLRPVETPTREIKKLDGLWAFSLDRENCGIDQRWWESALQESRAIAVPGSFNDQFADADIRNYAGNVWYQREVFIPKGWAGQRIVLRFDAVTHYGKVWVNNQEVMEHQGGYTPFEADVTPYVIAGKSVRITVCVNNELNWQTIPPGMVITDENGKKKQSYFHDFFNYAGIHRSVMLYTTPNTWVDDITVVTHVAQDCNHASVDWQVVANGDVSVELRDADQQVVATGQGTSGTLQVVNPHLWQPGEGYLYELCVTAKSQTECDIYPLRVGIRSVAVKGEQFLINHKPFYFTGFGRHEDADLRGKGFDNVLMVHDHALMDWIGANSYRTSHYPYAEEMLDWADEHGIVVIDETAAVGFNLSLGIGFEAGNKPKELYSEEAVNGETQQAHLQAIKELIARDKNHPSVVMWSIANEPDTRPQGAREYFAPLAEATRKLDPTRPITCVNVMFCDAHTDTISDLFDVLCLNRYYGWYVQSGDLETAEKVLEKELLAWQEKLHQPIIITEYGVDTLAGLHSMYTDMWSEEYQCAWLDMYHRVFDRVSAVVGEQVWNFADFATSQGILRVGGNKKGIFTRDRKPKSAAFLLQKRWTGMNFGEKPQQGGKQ
Chain of LgGUS (Lactobacillus gasseri GUS) (Q9AHJ8 1-598): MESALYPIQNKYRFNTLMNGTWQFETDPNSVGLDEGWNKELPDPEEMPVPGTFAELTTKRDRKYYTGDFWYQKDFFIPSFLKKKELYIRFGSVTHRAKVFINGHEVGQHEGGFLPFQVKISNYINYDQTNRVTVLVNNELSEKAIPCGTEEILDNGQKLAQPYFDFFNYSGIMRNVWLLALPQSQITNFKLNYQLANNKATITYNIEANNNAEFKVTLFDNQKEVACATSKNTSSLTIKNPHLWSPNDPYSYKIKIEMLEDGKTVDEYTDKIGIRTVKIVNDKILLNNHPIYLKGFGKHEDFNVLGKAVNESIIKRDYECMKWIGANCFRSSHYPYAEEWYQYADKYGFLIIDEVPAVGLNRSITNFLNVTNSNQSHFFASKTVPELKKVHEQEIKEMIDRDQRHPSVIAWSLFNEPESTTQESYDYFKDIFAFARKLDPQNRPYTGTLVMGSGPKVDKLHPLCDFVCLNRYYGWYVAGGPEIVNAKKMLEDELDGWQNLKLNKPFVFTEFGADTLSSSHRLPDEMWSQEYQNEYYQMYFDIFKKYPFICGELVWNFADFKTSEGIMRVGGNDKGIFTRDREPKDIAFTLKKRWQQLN
Chain of EcGUS (Escherichia coli GUS) (P05804 whole entry): as the sequence (P05804 whole entry) above
T1 sequence (P05804 whole entry): as above

CCCCCC[C@@H]1NC[C@@H](O)[C@H](O)[C@H]1C(=O)O [Inhibitor 3, C6-hexyl UIFG]
Ki ([1]; BdGUS, 50 mM HEPES pH 7.5, 37 °C): 860 ± 200 nM | 1/v [1, 5]: 0.8098 and 0.8436 and 0.8112 | GUS activity (hydrolysis rate of MUG) [1, 5]: 0.2757 and 0.2647 and 0.2753 | 1/v [1, 6]: 0.4851 and 0.501 and 0.4979 | GUS activity (hydrolysis rate of MUG) [1, 6]: 0.4603 and 0.4457 and 0.4485 | 1/v [1, 7]: 0.3326 and 0.3553 and 0.3441 | GUS activity (hydrolysis rate of MUG) [1, 7]: 0.6714 and 0.6286 and 0.649 | 1/v [1, 8]: 0.2934 and 0.2936 and 0.2832 | GUS activity (hydrolysis rate of MUG) [1, 8]: 0.761 and 0.7606 and 0.7885 | 1/v [1, 9]: 1.013 and 1.039 and 0.9379 | GUS activity (hydrolysis rate of MUG) [1, 9]: 0.2203 and 0.2148 and 0.2381 | 1/v [1, 10]: 0.5713 and 0.5847 and 0.5765 | GUS activity (hydrolysis rate of MUG) [1, 10]: 0.3909 and 0.3819 and 0.3873 | 1/v [1, 11]: 0.386 and 0.3868 and 0.3898 | GUS activity (hydrolysis rate of MUG) [1, 11]: 0.5784 and 0.5773 and 0.5728 | 1/v [1, 12]: 0.2997 and 0.3073 and 0.3039 | GUS activity (hydrolysis rate of MUG) [1, 12]: 0.7451 and 0.7267 and 0.7347 | 1/v [1, 13]: 1.333 and 1.373 and 1.236 | GUS activity (hydrolysis rate of MUG) [1, 13]: 0.1676 and 0.1627 and 0.1806 | 1/v [1, 14]: 0.7658 and 0.7424 and 0.7331 | GUS activity (hydrolysis rate of MUG) [1, 14]: 0.2916 and 0.3008 and 0.3046 | 1/v [1, 15]: 0.4723 and 0.4867 and 0.4608 | GUS activity (hydrolysis rate of MUG) [1, 15]: 0.4727 and 0.4588 and 0.4846 | 1/v [1, 16]: 0.3528 and 0.337 and 0.3348 | GUS activity (hydrolysis rate of MUG) [1, 16]: 0.6328 and 0.6626 and 0.667 | 1/v [1, 17]: 1.957 and 1.888 and 1.908 | GUS activity (hydrolysis rate of MUG) [1, 17]: 0.1141 and 0.1183 and 0.117 | 1/v [1, 18]: 1.031 and 0.9985 and 1.0212 | GUS activity (hydrolysis rate of MUG) [1, 18]: 0.2167 and 0.2236 and 0.2187 | 1/v [1, 19]: 0.6082 and 0.615 and 0.6155 | GUS activity (hydrolysis rate of MUG) [1, 19]: 0.3672 and 0.3631 and 0.3628 | 1/v [1, 20]: 0.4308 and 0.4219 and 0.4288 | GUS activity (hydrolysis rate of MUG) [1, 20]: 0.5183 and 0.5293 and 0.5208 | Ki ([2]; LgGUS, 50 mM sodium acetate pH 4.5, 37 °C): 860 ± 180 nM | 1/v [2, 21]: 0.401 and 0.3673 and 0.39 | GUS activity (hydrolysis rate of MUG) [2, 21]: 3104.19 and 3385.21 and 3190.6 | 1/v [2, 22]: 0.256 and 0.2525 and 0.2536 | GUS activity (hydrolysis rate of MUG) [2, 22]: 4839.61 and 4906.13 and 4884.95 | 1/v [2, 23]: 0.1953 and 0.1691 and 0.1949 | GUS activity (hydrolysis rate of MUG) [2, 23]: 6330.06 and 7304.48 and 6344.76 | 1/v [2, 24]: 0.1452 and 0.1349 and 0.1522 | GUS activity (hydrolysis rate of MUG) [2, 24]: 8498.3 and 9149.25 and 8113.44 | 1/v [2, 25]: 0.5803 and 0.4953 and 0.5757 | GUS activity (hydrolysis rate of MUG) [2, 25]: 2157.49 and 2520.77 and 2174.43 | 1/v [2, 26]: 0.3424 and 0.3184 and 0.351 | GUS activity (hydrolysis rate of MUG) [2, 26]: 3628.61 and 3898.42 and 3540.08 | 1/v [2, 27]: 0.2292 and 0.221 and 0.234 | GUS activity (hydrolysis rate of MUG) [2, 27]: 5401.09 and 5599.95 and 5290.95 | 1/v [2, 28]: 0.17 and 0.1709 and 0.1804 | GUS activity (hydrolysis rate of MUG) [2, 28]: 7266.77 and 7229.36 and 6851.15 | 1/v [2, 29]: 0.7678 and 0.7232 and 0.846 | GUS activity (hydrolysis rate of MUG) [2, 29]: 1640.4 and 1739.08 and 1492.59 | 1/v [2, 30]: 0.3881 and 0.4343 and 0.4681 | GUS activity (hydrolysis rate of MUG) [2, 30]: 3205.84 and 2869.39 and 2664.86 | 1/v [2, 31]: 0.2765 and 0.2621 and 0.3029 | GUS activity (hydrolysis rate of MUG) [2, 31]: 4483.64 and 4728.12 and 4096.06 | 1/v [2, 32]: 0.1941 and 0.1876 and 0.2109 | GUS activity (hydrolysis rate of MUG) [2, 32]: 6369.22 and 6587.98 and 5864.23 | 1/v [2, 33]: 1.38 and 1.418 and 1.362 | GUS activity (hydrolysis rate of MUG) [2, 33]: 930.888 and 906.847 and 942.511 | 1/v [2, 34]: 0.7054 and 0.7651 and 0.7316 | GUS activity (hydrolysis rate of MUG) [2, 34]: 1782.13 and 1646.05 and 1719.56 | 1/v [2, 35]: 0.4164 and 0.4204 and 0.422 | GUS activity (hydrolysis rate of MUG) [2, 35]: 2991.08 and 2963 and 2951.69 | 1/v [2, 36]: 0.2731 and 0.2793 (2×) | GUS activity (hydrolysis rate of MUG) [2, 36]: 4539.61 and 4438.44 and 4439.48 | Ki ([3]; 50 mM HEPES pH 7.5, 37 °C): 0.003 ± 0.0006 µM | Ki ([3]; source data of Table 1, from plot of apparent Km against [inhibitor] (μM)): 0.00316 µM | IC50 [4]: 18.6 nM | ΔH (EcGUS; Tris buffer (250 mM NaCl, 20 mM Tris, pH 8.0), 298 K): Essentially no enthalpy change was evident; also recorded: close to zero | ΔΔH relative to 2 (ΔΔH2–3, ΔΔH2–4) (EcGUS; phosphate buffer): +0.04 kcal mol^−1 | –TΔΔS relative to 2 (–TΔΔS2–3, –TΔΔS2–4) (EcGUS; phosphate buffer): –1.32 kcal mol^−1 | Kd (EcGUS; [37]): 30 ± 10 nM | ΔG (EcGUS; [37]): –10.24 ± 0.18 kcal/mol | ΔH (EcGUS; [37]): –3.95 ± 0.06 kcal/mol | —TΔS (EcGUS; [37]): –6.29 ± 0.13 kcal/mol
